For five molecules, EC50 results are on record in US20200172483A1, “HETEROCYCLIC SMALL MOLECULE MODULATORS OF HUMAN STING” (Curadev Pharma Limited, priority 2017, published 2020).

For experiment [1], the system named is NF-κB pathway. Nature of the experiment: Reporter gene expression assay for NFκB axis in THP1-Dual cells (secreted SEAP). Format: cell-based, human. To be noted: Homo sapiens, THP1-Dual, 20 h, 20 hr stimulation, QUANTI-Blue SEAP, EC50 range, read-out: THP-NFKB activity. Summed up:
(§1)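 THP1-Dual cells (THP-1 monocytes with inducible NF-κB-SEAP and IRF-Lucia reporters; 5×10^5 cells) were stimulated with compounds for 20 hr. Secreted SEAP (QUANTI-Blue) and Lucia luciferase (QUANTI-Luc) were then measured in the supernatant. EC50 values are reported as ranges.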

For experiment [2], the target named is T1, hSTING (H232) (Homo sapiens, UniProt Q86WV6).
T1 construct: host or cells: HEK293T
Kind of experiment: Luciferase reporter assay in HEK293T-hSTING-Luciferase cells (H232/REF polymorph). Type of experiment: cell-based. As to conditions: EC50 range. In outline: (§2)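 Clonal HEK293T lines stably expressing the hSTING variant (H232 or HAQ) plus an ISRE/ISG54-driven secreted luciferase reporter were stimulated with compounds for 20 hr. Supernatant luciferase measured by luminescence (Quanti-Luc).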

For experiment [3], the system named is IRF pathway. Nature of the experiment: Reporter gene expression assay for IRF axis in THP1-Dual cells (secreted Lucia luciferase). Format: cell-based, human. As to conditions: Homo sapiens, THP1-Dual, 20 h, 20 hr stimulation, QUANTI-Luc, EC50 range, read-out: THP-IRF activity. Summed up: as §1
Experiment [4] has as its target T2, WT/R232 STING protein (Homo sapiens, UniProt Q86WV6, H232R).
T2 construct: host or cells: HEK293T
Kind of experiment: Luciferase reporter assay in HEK293T-hSTING-Luciferase cells (R232). Format: cell-based. As to conditions: 20 hr stimulation, EC50 range. In outline: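 Clonal HEK293T cells stably expressing human STING R232 plus an ISRE/ISG54-driven secreted luciferase reporter, stimulated with compounds for 20 hr. Luciferase in supernatant read by luminescence; activity given as fold-induction over baseline.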

The target in experiment [5] is T3, hSTING (HAQ) (Homo sapiens, UniProt Q86WV6, G230A/H232R/R293Q/R71H).
T3 construct: host or cells: HEK293T
Nature of the experiment: Luciferase reporter assay in HEK293T-hSTING-Luciferase cells (HAQ polymorph). Format: cell-based. As to conditions: EC50 range. In outline: as §2

A value given as a limit tells only on which side of the number the result lay.

T2 sequence (Q86WV6 whole entry H232R): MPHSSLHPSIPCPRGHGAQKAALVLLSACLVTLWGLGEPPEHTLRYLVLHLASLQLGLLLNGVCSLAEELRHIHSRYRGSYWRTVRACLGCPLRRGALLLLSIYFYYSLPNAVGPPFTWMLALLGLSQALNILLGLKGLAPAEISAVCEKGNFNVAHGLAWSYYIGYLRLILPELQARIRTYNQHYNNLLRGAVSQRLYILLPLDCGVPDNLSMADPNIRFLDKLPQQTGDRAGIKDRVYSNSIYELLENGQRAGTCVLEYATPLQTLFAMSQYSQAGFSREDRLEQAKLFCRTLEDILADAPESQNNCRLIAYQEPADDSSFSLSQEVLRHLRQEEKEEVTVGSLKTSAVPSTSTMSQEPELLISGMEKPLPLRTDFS
T3 sequence (Q86WV6 whole entry R71H/G230A/H232R/R293Q): as the sequence (Q86WV6 whole entry H232R) above, with R71H, G230A, R293Q counted along it
T1 sequence (Q86WV6 whole entry): as the sequence (Q86WV6 whole entry H232R) above, with R232H counted along it

As to `CC1(C)C(=O)N(Cc2c(F)cccc2Cl)c2cc(C(=O)NCc3cc4cc(F)ccc4o3)ccc21` [Example 75, 1-(2-chloro-6-fluorobenzyl)-N-((5-fluorobenzofuran-2-yl)methyl)-3,3-dimethyl-2-oxoindoline-6-carboxamide], the EC50 in experiment [1] is 1 to 10 µM; in experiment [2] it was not above 1 µM; in experiment [3], 1 to 10 µM; in experiment [4] it was not above 1 µM; in experiment [5], not above 1 µM.

Turning to `CC1(C)C(=O)N(Cc2cccc(N=[N+]=[N-])c2)c2cc(C(=O)NCc3c(F)cc(F)cc3F)ccc21` [Example 57, 1-(3-azidobenzyl)-3,3-dimethyl-2-oxo-N-(2,4,6-triflurobenzyl)indoline-6-carboxamide], the EC50 in experiment [1] was more than 10 µM; in experiment [2], 1 to 10 µM; in experiment [3], more than 10 µM; in experiment [4], 1 to 10 µM; in experiment [5], 1 to 10 µM.

Take `CCn1nc(C)cc1CN1C(=O)C(C)(C)c2ccc(C(=O)NCc3cc4cc(F)ccc4o3)cc21` [Example 116, 1-((1-ethyl-3-methyl-1H-pyrazol-5-yl)methyl)-N-((5-fluorobenzofuran-2-yl)methyl)-3,3-dimethyl-2-oxoindoline-6-carboxamide]: the EC50 in experiment [1] was 1 to 10 µM; in experiment [2], not above 1 µM; in experiment [3] it was 1 to 10 µM; in experiment [4] it was not above 1 µM; in experiment [5], not above 1 µM.

Turning to `Cc1nn(C)c(CN2C(=O)C(C)(C)c3ccc(C(=O)NCc4cc5cc(F)c(F)cc5o4)cc32)c1F` [Example 114, N-((5,6-difluorobenzofuran-2-yl)methyl)-1-((4-fluoro-1,3-dimethyl-1H-pyrazol-5-yl)methyl)-3,3-dimethyl-2-oxoindoline-6-carboxamide], the EC50 was 1 to 10 µM in experiment [1]; not above 1 µM in experiment [2]; 1 to 10 µM in experiment [3]; not above 1 µM in experiment [4]; not above 1 µM in experiment [5].

Consider `CC1(C)C(=O)N(Cc2c(F)cccc2C#N)c2cc(C(=O)NCc3c(F)cc(F)cc3F)ccc21` [Example 76, 1-(2-cyano-6-fluorobenzyl)-3,3-dimethyl-2-oxo-N-(2,4,6-trifluorobenzyl)indoline-6-carboxamide], for which the EC50 was more than 10 µM in experiment [1]; 1 to 10 µM in experiment [2]; more than 10 µM in experiment [3]; 1 to 10 µM in experiment [4]; 1 to 10 µM in experiment [5].
